Source: paper PMC1247661 (Environmental Health Perspectives, 2004)

Tests used:
[1] = system: hepatic gene expression; details: liver, 13 weeks; average (± 1 SD) of three GeneChips
[2] = system: hepatic gene expression; experiment: Real-time RT-PCR of hepatic mRNA after 13-week exposure: TCDD 100, PeCDF 200, PCB126 1,000 ng/kg/day, PCB153 1,000 μg/kg/day; type: in vivo, female Harlan Sprague-Dawley rats; details: liver, 13 weeks; average (± 1 SD) of three RNA pools; normalized to 18S RNA
Method: Tissues for this study were provided by the NTP ([NTP 2004a], [2004b], [2004c]) as part of a 2-year bioassay for relative carcinogenic potencies of dioxin-like chemicals. […] Toxicologic dose equivalence was based on the current World Health Organization TEF recommendations ([Van den Berg et al. 1998]). Subgroups of rats were sacrificed at 14, 31, and 53 weeks (corresponding to 13, 30, or 52 weeks of exposure), and target organs were removed, flash frozen in liquid nitrogen, and stored at −70°C for mechanistic studies.
Frozen hepatic tissue was disrupted by homogenization with a rotor stator homogenizer, and total RNA was isolated with Qiagen RNeasy columns Qiagen Inc., Valencia, CA). There were a total of six rats in each exposure group. Three pools of RNA were created from each exposure group (n = 2 rats per pool), similar to the experimental design of [Yechoor et al. (2002)]. Pooled total RNA was further purified using the Qiagen poly(A) RNA isolation kit. RNA integrity was assessed by the Agilent Bioanalyzer 2100 (Agilent Technologies, Palo Alto, CA). […] Poly(A) RNA was transformed into labeled cRNA by the Roswell Park Cancer Institute Microarray and Genomics Core Facility (Buffalo, NY). cRNA from each pool was fragmented and its quality evaluated with Affymetrix GeneChip Test3 arrays (Santa Clara, CA) by comparing 3′:5′ signal ratios of housekeeping genes. High-quality cRNA (3′:5′ signal ratio near 1) was subsequently hybridized to Affymetrix RGU34A GeneChips, and chips were scanned with the Affymetrix 428 scanner.
Reverse transcriptase reactions (80 μL) contained 20 μg total RNA, 0.5 mM dNTP mix, and 15 ng/μL random primers, 1 × first-strand buffer, 10 mM dithiothreitol, 27 U Rnasin RNase inhibitor (Promega, Madison, WI), and 800 U superscript reverse transcriptase (Invitrogen). A mixture containing total RNA, dNTPs, and random primers was heated to 65°C for 5 min to denature the RNA and then immediately placed on ice. The remaining components of the reaction mixture were then added to the RNA, and cDNA synthesis was performed at 42°C for 60 min. Reactions were terminated by heating to 70°C for 10 min.
PCR primers were selected from GenBank database sequences with Primer3 software ([Rozen and Skaletsky 2000]). […] Nonspecific mispriming was managed by a mispriming threshold of 10.0 in the rodent mispriming library.
Real-time PCR was performed with the SYBR Green PCR kit from Applied Biosystems (Foster City, CA) according to the manufacturer’s instructions. PCR reactions (25 μL) contained diluted cDNA, 1 × SYBR Green buffer, 3 mM MgCl2, 0.2 mM dNTP mix, 0.2 μM left and right primers, 10 nM fluorescein, and 1.1 U of Amplitaq Gold polymerase. The reaction was initiated by incubation at 95°C for 10 min and followed by 40 cycles of denaturation at 95°C for 15 sec and primer annealing/extension at 60°C for 1 min. Sample fluorescence was evaluated during the annealing/extension step. Upon completion of thermocycling, the specificity of each reaction was evaluated by melting analysis. Samples were heated to 95°C for 2 min and cooled to 55°C. The temperature was maintained at 55°C for 15 sec to analyze sample fluorescence, and the temperature was increased by increments of 0.5°C followed by 15 sec of fluorescence analysis for a total of 80 cycles.
The efficiency of each primer set was validated over a range of cDNA concentrations. […] After primer validation, PCR reactions were performed with a single cDNA concentration, and the threshold cycle (Ct) was determined for each reaction. The difference (ΔCt) between the threshold cycle for the target gene and endogenous control gene (18S RNA) was calculated for each sample, and the 18S normalized relative expression of each gene was calculated by the comparative method according to the Applied Biosystems’ User Bulletin No. 2 for the ABI Prism Sequence Detection System (Applied Biosystems), as described by [Imasato et al. (2002)].

[3] = system: liver; details: TCDD 100, PeCDF 200, PCB126 1,000 ng/kg/day, ref NTP 2004a, 2004b, 2004c; cited from earlier work
[4] = system: liver; details: 13 weeks, ref NTP 2004a, 2004b, 2004c, cited from earlier work; for Liver hypertrophy, incidence (number of rats of 10): TCDD 100, PeCDF 200, PCB126 1,000 ng/kg/day, PCB153 1,000 μg/kg/day; for Liver hypertrophy, severity in words: highest dose of each compound; for Liver hypertrophy, mean severity score: 1, minimal, 2, mild, 3, moderate, 4, marked
[5] = 13 weeks; mean ±SD of 10 rats; TCDD 100, PeCDF 200, PCB126 1,000 ng/kg/day, PCB153 1,000 μg/kg/day; ref NTP 2004a, 2004b, 2004c; cited from earlier work
[6] = same doses, 1, minimal to 4, marked

Row | SMILES | C-CAM4 mRNA, average change vs vehicle, Microarray [1] | CAP2 mRNA, average change vs vehicle, Microarray [1] | CES3 mRNA, average change vs vehicle, Microarray [1] | CYP1B1 mRNA, average change vs vehicle, Microarray [1] | SERPIN7A mRNA, average change vs vehicle, Microarray [1] | SST mRNA, average change vs vehicle, Microarray [1] | C-CAM4 mRNA, average change vs vehicle, RT-PCR [2] | CAP2 mRNA, average change vs vehicle, RT-PCR [2] | CES3 mRNA, average change vs vehicle, RT-PCR [2] | CYP1B1 mRNA, average change vs vehicle, RT-PCR [2] | CYP3A9 mRNA, average change vs vehicle, RT-PCR [2] | SERPIN7A mRNA, average change vs vehicle, RT-PCR [2] | SST mRNA, average change vs vehicle, RT-PCR [2] | Liver hypertrophy, incidence (number of rats of 10) [4] | Liver hypertrophy, severity in words [4] | Liver hypertrophy, mean severity score ([4]; same doses) | Diffuse fatty change, incidence (number of rats of 10) ([4]; same doses) | Multinucleated hepatocytes, incidence (number of rats of 10) ([4]; same doses) | Pigmentation, incidence (number of rats of 10) ([4]; same doses) | Liver levels [5] | other results
1 | Clc1ccc(-c2cc(Cl)c(Cl)c(Cl)c2)cc1Cl [PCB126, 3,3′,4,4′,5-pentachlorobiphenyl] | 25.1 (4 to 46.2) | 7.6 (2 to 13.2) | −4 (−4.4 to −3.6) | 317.1 (41.1 to 593.1) | −4 (−4.9 to −3.1) | −6.4 (−9.4 to −3.4) | 3.5 (2.6 to 4.7) | 119.4 (104 to 137.2) | −1.4 (−1.5 to −1.3) | 106.4 (98.2 to 115.3) | −28.5 (−30.2 to −26.9) | −8.4 (−12 to −5.9) | −1.5 (−1.6 to −1.4) | 10 | minimal to mild | 1.7 | 0 | 0 | 0 | 412.6 ± 73.5 ng/g | liver findings after 2 years of exposure [3]: cholangiocarcinoma, hepatocellular adenoma, toxic hepatopathy, multinucleated hepatocytes, diffuse fatty change, and liver pigmentation
2 | Clc1cc(Cl)c(-c2cc(Cl)c(Cl)cc2Cl)cc1Cl [PCB153, 2,2′,4,4′,5,5′-hexachlorobiphenyl] |  |  | 1.3 (1 to 1.6) | 2.1 (1 to 3.2) | 1.6 (1.3 to 1.9) | −9.5 (−10.1 to −8.9) | −1.1 (−1.3 to 1) | −1.3 (−1.5 to −1.1) | 2.4 (2.1 to 2.6) | −1.2 (−1.6 to 1) | −1.8 (−2.1 to −1.5) | −1.2 (−1.5 to 1) | −3 (−3.5 to −2.5) | 9 | minimal | 1.2 | 0 | 0 | 0 | 9,250 ± 2,061 ng/g | CYP3A9 mRNA, average change vs vehicle, Microarray [1]: 1.6 (0.8 to 2.4)
3 | Clc1cc2oc3c(Cl)c(Cl)c(Cl)cc3c2cc1Cl [PeCDF, 2,3,4,7,8-pentachlorodibenzofuran] | 37.4 (25.5 to 49.3) | 10.9 (4 to 17.8) | −2.8 (−3.8 to −1.8) | 493.3 (310.1 to 676.5) | −2.7 (−3.6 to −1.8) | −8.3 (−11.1 to −5.5) | 2.5 (2.3 to 2.7) | 20.2 (17.8 to 22.9) |  | 59.7 (48.3 to 73.8) | −4.2 (−5 to −3.5) | −29.9 (−32 to −27.9) | −1.6 (−2 to −1.2) |  |  |  |  | 0 |  | 132.9 ± 47.4 ng/g | CYP3A9 mRNA, average change vs vehicle, Microarray [1]: −2.3 (−3.3 to −1.3)
4 | Clc1cc2c(cc1Cl)Oc1cc(Cl)c(Cl)cc1O2 [TCDD, 2,3,7,8-tetrachlorodibenzo-p-dioxin] | 133.4 (112.1 to 154.7) | 53.6 (31.1 to 76.1) | −8.1 (−9.9 to −6.3) | 676.3 (470.8 to 881.8) | −11.5 (−17.2 to −5.8) | −8 (−10.5 to −5.5) | 4.1 (3.8 to 4.4) | 168.9 (147.9 to 192.9) | −4.8 (−5.2 to −4.4) | 256 (236.3 to 277.3) | −1024 (−1201.8 to −872.5) | −26.6 (−30.2 to −23.4) | −36.8 (−46.4 to −29.1) | 10 | mild to moderate | 2.3 | 2 | 3 | 0 | 18.3 ± 0.8 ng/g | CYP3A9 mRNA, average change vs vehicle, Microarray [1]: −35.4 (−53.4 to −17.4); liver findings after 2 years of exposure [3]: cholangiocarcinoma, hepatocellular adenoma, toxic hepatopathy, multinucleated hepatocytes, diffuse fatty change, and liver pigmentation; Diffuse fatty change, mean severity score [4, 6]: 1.0; Multinucleated hepatocytes, mean severity score [4, 6]: 1.0
